Values quoted from earlier work, collected in US20040265344A1, “Aloe suppositories” (priority 2003, published 2004).

Assays:
[1] = tested on: rat colonic mucosa sodium and potassium adenosine triphosphatase (ATP-ase); conditions: in vitro
[2] = tested on: residual fluid volume

Structure (SMILES) | effect on rat colonic mucosa sodium and potassium ATP-ase [1] | effect on the rise in residual fluid volume [2]
O=C1c2c(O)cccc2Cc2cc(CO)cc(O)c21 [Aloe-emodin-9-anthrone] | inhibited | –
CN(C)C(=O)C(CCN1CCC(O)(c2ccc(Cl)cc2)CC1)(c1ccccc1)c1ccccc1 [loperamide] | – | did not completely inhibit
